Assay results: US20180353445A1, “METHODS AND COMPOSITIONS RELATING TO PROTEASOME INHIBITOR RESISTANCE” (Whitehead Institute for Biomedical Research, priority 2017, published 2018)

Legend:
Format in all cases: cell-based, human
[1] = tested on: IMR32 (reduced PSMD5) and Kelly neuroblastoma cells; test: Viability of IMR32 versus Kelly neuroblastoma cells (CellTiter-Glo); conditions: ABT-263 versus more specific BCL2, BCL-XL and MCL-1 inhibitors
Experimental: To determine whether these compounds also differentially affect cells with reduced expression of PSDMS, IMR32 and Kelly cells were each cultured in the presence of ABT-263, disulfiram, or elesclomol across a range of concentrations. Cell viability was measured by CellTiter-Glo® Luminescent Cell Viability Assay 72 hours after addition of the compound to cells. The fold viability relative to culture in the absence of the compound was determined for each cell line. […] In the experiment shown in FIG. 24, the lowest lower concentration of ABT-263 and disulfiram tested was 1 uM.
ABT-263 targets several members of the BCL2 family, including BCL2 and BCL-XL.

T47D cells [2] = test: The glucose/galactose drug screen; conditions: 10 mM Glucose or Galactose, Selleck anti cancer and natural product libraries
Experimental: We conducted a second set of drug screens to identify unique sensitivities conferred by the Hi-OXPHOS state using parental T47D breast cancer cells (without 19S subunit suppression). For this screen, we used the NPC and CDL libraries as they contained the greatest number of hits in the Lo19S screen. We tested over 800 compounds at multiple concentrations and measured their effects on relative cell growth/viability when cells were grown under aerobic glycolysis conditions (glucose-supplemented medium) or forced mitochondrial respiration conditions (galactose-supplemented medium).
The glucose/galactose drug screen—T47D cells growing in regular media were collected counted and after centrifugation cells were re-suspended in RPM1 media without glucose containing 10% dialyzed serum with the addition of either 10 mM glucose or 10 mM galactose, Cells were then plated at 1000 cells/well in 384-well opaque, white assay plates (Coming, N.Y.), 50 uL per well, and incubated overnight at 37°C./5% CO2. Application of the drug libraries and cell viability was executed as described above for the Lo19S drug screen.

[3] = tested on: T47D cells with doxycycline inducible PSMD2 KD (Lo19S) versus control cells; test: Lo19S T47D drug screen (PSMD2 KD versus control cells, CellTiter-Glo); conditions: for viability of PSMD2 KD versus control cells: Selleck natural product library (NPC) and NIH bioactive compound library, selectivity less than for the anti-cancer library hits; for viability of PSMD2 KD versus control cells (log2 (shPSMD2/Control)): T47D, Lo19S state by dox-inducible PSMD2 shRNA, compound library screen, 72 h, CellTiter-Glo
Experimental: The effect of each drug on viability of cells was calculated by averaging the duplicate experiments. The data is plotted in FIG. 16 as the log2 of the ratio of viability of PSMD2 KD versus control cells (log2 (shPSMD2/Control)). […] The Selleck natural product library (NPC) comprising 502 compounds in 5 doses and the. NIH bioactive compound library that includes 731 compounds in 4 doses were also screened using the same system.
A deeper understanding of the proteasome inhibitor resistant state could yield insights into the molecular mechanisms activated by cells to cope with proteotoxic stress and elucidate new therapeutic strategies for cancer. With these goals in mind, we screened mechanistically diverse small molecule libraries to identify compound sensitivities altered by the Lo19S and Hi-OXPHOS states. An initial screen was conducted in the isogenic T47D model with transient induction of the Lo19S state as described above, We evaluated >4300 mechanistically well-defined compounds within 4 libraries. The compounds included approved cancer drugs (Selleck anti-cancer library: CDL), common natural products (Natural product library: NPC) and an ^-NIH bioactives library (NIH). Each of these compounds was tested at ≥4 concentrations. (Table S5, data not shown), An additional 2866 compounds from the Boston University's Chemical Methodology and Library Development (CMLD-BU) small molecule collection was screened at a single dose (BULL, see Table S5).
(§1) Generation of the Lo19S T47D cell line—For the generation of the T47D Tet-inducible PSMD2 knockdown cell line—the TRIPZ vector with an inducible shRNA targeting PSMD2 was purchased from Dharmacon (clone V3THS_403760). It was introduced to the T47D cells according to manufactures protocol and cells were selected with puromycin 1 g/ml for one week. The cells were exposed to doxycycline for 24 hours and cells were FACS sorted for the top 10% of most RFP expressing cells (highest expression of shRNA). The cells were further cultured in the absence of doxycycline and PSMD2 knockdown was induced as specified in the text.
After 48 hours the cells were collected counted and plated (in the absence of dox) at 1000 cells/well in 384-well opaque, white assay plates (Coming, NY), 50 uL per well, and incubated overnight at 37° C./5% CO2. Compound stocks from the Cancer drug library containing 349 bioactive compounds that were arrayed in dose 10 nM, 100 nM, 1 uM, 10 uM (Selleck anti-cancer compound library L3000), the natural products library containing 502 compounds that were utilized in 5 doses (dilution of 1:1000 of 2ug/ml, 0.2 ug/ml, 0.002/ug/ml, 0.0002 ug/ml), the NIH bioactive library including 731 drugs in dose of 10 nM, 100 nM, 1 uM, 10 uM and the Boston University's CMLD (Chemical Methodology and Library Development) compound deck containing 2866 compounds in one dose (10 uM), including novel chemotypes that uniquely probe three-dimensional space by employing stereochemical and positional variation within the molecular framework as diversity elements in library design. 50 nl of compounds were pin-transferred (V&P Scientific, CA, pin tool mounted onto Tecan Freedom Evo 150 MCA96 head, Tecan, Calif.) into duplicate assay plates and incubated for 72 h. The DMSO content was 0.1% within each well, Per plate, there are 32 wells of DMSO vehicle control and 32 wells of positive control compounds. After three days of incubation, 10 uL of CellTiter-Glo (Promega, Wis.) was added to each well, incubated for 10 minutes and the luminescence output was read on the M1000 Infinite Pro plate reader (Tecan, Calif.).

T47D cells [4] = test: Drug library screen (Selleck anti-cancer, NPC, NIH bioactive), PSMD2 KD vs control T47D cells; conditions: Selleck anti-cancer compound library screen
Experimental: Schematic representation of the drug screen setup. (FIG. 37A) 147D cells harboring a doxycycline-inducible PSMD2 shRNA were grown in the presence or absence of doxycycline for 48 hr. Cells were then collected, washed, and plated in the absence of doxycycline for 24 hr prior to exposure different compounds. Relative cell numbers were measured 3 days later.
The relative viability of the Lo19S versus control cells was calculated for replica experiments and the log2 of the ratio is plotted. […] The relative viability of the respiring cells (Hi-OXPHOS) (gal) versus the control cells (glu) was calculated for replica experiments and the log2 of the ratio is plotted.
After 48 hours the cells were collected, counted, and plated at 1000 cells/well in 384 well plates in duplicates for each cell line. Compounds from the Selleck Chemicals anti-cancer compound library (349 drugs in 4 concentrations; […]) were pinned the next day and viability was measured after 72 hours by the reduction of Resazurin (Ex=530 run, Em=590nin). (See FIG. 37A for schematic of screen.)

T47D cells [5] = test: Cell viability, T47D cells with doxycycline-inducible PSMD2 shRNA (KD) vs control; conditions: T47D, transient PSMD2 reduction
Experimental: FIGS. 37A-37E: Subunit suppression results in highly specific drug sensitivity alteration. Schematic representation of the drug screen setup. (FIG. 37A) 147D cells harboring a doxycycline-inducible PSMD2 shRNA were grown in the presence or absence of doxycycline for 48 hr. Cells were then collected, washed, and plated in the absence of doxycycline for 24 hr prior to exposure different compounds. Relative cell numbers were measured 3 days later. […] (FIGS. 37C-37E) The relative viability of the PSMD2 knockdown (KD) versus the control was calculated for replica experiments and the log2 of the ratio is plotted for 349 compounds from the Selleck anti-cancer L3000 drug library that were tested in 4 concentrations (FIG. 37C), the Selleck natural product library (NPC) comprising 502 compounds in 5 doses (FIG. 37D), and the NIH bioactive compound library that includes 731 compounds in 4 doses (FIG. 37E). Specific compounds are annotated.
The effect of transient PSMD2 reduction on growth of T47D cells in the presence of different proteasome inhibitors (bortezomib, MLN9708, carfilzomib, oprozornib) was tested. T47D cells harboring a doxycycline inducible control shRNA (GFP) or a doxycycline-inducible PSMD2 shRNA (TurhoRFP) were incubated with doxycycline for 3 days. Cells were then split and grown in the absence of Dox and proteasome inhibitors were then added at various concentrations. Cells were maintained in culture and then counted.
as §1, with “For” for “Generation of the Lo19S T47D cell line—For”, “line- the” for “line—the”, “Dhannacon” for “Dharmacon”, “μg/ml” for “g/ml”, “relevant Examples. The TRIPZ control GFP vector was created by removing the turboRFP from the TRIPZ control vector by digestion with Agel and ClaI and replacing it with GFP amplified with primers flanking with Agel and Clal restriction sites.” for “text.”
Cell Viability Assay—Relative cell growth and survival were measured in 96-well microplate format in the shRNA experiments and in 384 well format in the drug toxicity assays, by using the fluorescent detection of resazurin dye reduction as an endpoint (544 nm excitation and 590 run emission). 2,500 cells in 96 wells format or 1,000 cells in 384 well format were plated 24 hours before compound exposure (for 72 hours or indicated time). Each analysis was performed at least with three replicas.

Cc1nn(C)c(COc2ccc(N3CCN(S(=O)(=O)N(C)C)CC3)cc2)c1-c1cccc2c(CCCOc3cccc4ccccc34)c(C(=O)O)n(CCN3CCOCC3)c12 [A-1210477]
preferential sensitivity of IMR32 versus Kelly cells, compared among BCL2 family inhibitors [1]: much greater for ABT-263

COc1cc2c(cc1OC)[C@@H]1C(=O)c3ccc4c(c3O[C@@H]1CO2)C=CC(C)(C)O4 [Degeulin]
relative viability change of cells grown in glucose versus galactose (T47D cells [2]): increased sensitivity

CN1C(=O)[C@]23CC4=CC=C[C@H](O)[C@H]4N2C(=O)[C@@]1(CO)SS3 [Gliotoxin]
viability of PSMD2 KD versus control cells [3]: selectively toxic to cells with PSMD2 knockdown

COc1ccc(-c2ccc3c(N4CCOCC4)nc(N4C[C@@H](C)O[C@@H](C)C4)nc3n2)cc1CO [Ku-0063794]
growth inhibition of T47D cells with reduced level of PSMD2 vs control T47D cells (T47D cells [4]): selectively inhibit growth | viability of PSMD2 KD versus control cells (log2 (shPSMD2/Control)) [3]: selectively reduce the viability of PSMD2 KD cells versus control cells

CC[C@@H]1/C=C/C=C/C[C@H](C)[C@H](O)[C@](C)(O)C(=O)[C@H](C)[C@@H](O)[C@H](C)C(=O)[C@H](C)[C@@H](O)[C@H](C)/C=C/C(=O)O[C@H]2[C@@H](C)[C@@H](CC1)O[C@@]1(CC[C@@H](C)[C@@H](C[C@H](C)O)O1)[C@@H]2C [Oligomycin A]
relative viability change of cells grown in glucose versus galactose (T47D cells [2]): increased sensitivity

Nc1ccc2ncnc(NCCc3ccc(Oc4ccccc4)cc3)c2c1 [QNZ]
relative viability change of cells grown in glucose versus galactose (T47D cells [2]): increased sensitivity

C=C(C)[C@H]1Cc2c(ccc3c2O[C@@H]2COc4cc(OC)c(OC)cc4[C@@H]2C3=O)O1 [Rotenone]
relative viability change of cells grown in glucose versus galactose (T47D cells [2]): increased sensitivity

CC(C)C[C@H](NC(=O)[C@H](CCc1ccccc1)NC(=O)CN1CCOCC1)C(=O)N[C@@H](Cc1ccccc1)C(=O)N[C@@H](CC(C)C)C(=O)[C@@]1(C)CO1 [carfilzomib]
resistance of cells harboring PSMD2 shRNA vs parental line (EC50) (T47D cells [5]): EC50 values increased considerably

Nc1nc(Cl)nc2c1ncn2[C@H]1C[C@H](O)[C@@H](CO)O1 [cladribine, 2-chlorodeoxyadenosine]
growth inhibition of T47D cells with reduced level of PSMD2 vs control T47D cells (T47D cells [4]): selectively inhibit growth | viability of PSMD2 KD versus control cells (log2 (shPSMD2/Control)) [3]: selectively reduce the viability of PSMD2 KD cells versus control cells

CCCCc1oc2ccccc2c1C(=O)c1cc(I)c(OCCN(CC)CC)c(I)c1 [cordarone]
viability of PSMD2 KD versus control cells [3]: selectively toxic to cells with PSMD2 knockdown
